The values below come from patent US10722514B2 (FLX Bio, Inc., priority 2017, dated 2020).

A value given as a limit tells only on which side of the number the result lay.

The target in the first assay is T1, recombinant full-length USP7 (Homo sapiens, UniProt Q93009).
T1 construct: A 25 μl reaction volume containing recombinant full-length USP7 (62 pM)
T1 sequence (Q93009 whole entry): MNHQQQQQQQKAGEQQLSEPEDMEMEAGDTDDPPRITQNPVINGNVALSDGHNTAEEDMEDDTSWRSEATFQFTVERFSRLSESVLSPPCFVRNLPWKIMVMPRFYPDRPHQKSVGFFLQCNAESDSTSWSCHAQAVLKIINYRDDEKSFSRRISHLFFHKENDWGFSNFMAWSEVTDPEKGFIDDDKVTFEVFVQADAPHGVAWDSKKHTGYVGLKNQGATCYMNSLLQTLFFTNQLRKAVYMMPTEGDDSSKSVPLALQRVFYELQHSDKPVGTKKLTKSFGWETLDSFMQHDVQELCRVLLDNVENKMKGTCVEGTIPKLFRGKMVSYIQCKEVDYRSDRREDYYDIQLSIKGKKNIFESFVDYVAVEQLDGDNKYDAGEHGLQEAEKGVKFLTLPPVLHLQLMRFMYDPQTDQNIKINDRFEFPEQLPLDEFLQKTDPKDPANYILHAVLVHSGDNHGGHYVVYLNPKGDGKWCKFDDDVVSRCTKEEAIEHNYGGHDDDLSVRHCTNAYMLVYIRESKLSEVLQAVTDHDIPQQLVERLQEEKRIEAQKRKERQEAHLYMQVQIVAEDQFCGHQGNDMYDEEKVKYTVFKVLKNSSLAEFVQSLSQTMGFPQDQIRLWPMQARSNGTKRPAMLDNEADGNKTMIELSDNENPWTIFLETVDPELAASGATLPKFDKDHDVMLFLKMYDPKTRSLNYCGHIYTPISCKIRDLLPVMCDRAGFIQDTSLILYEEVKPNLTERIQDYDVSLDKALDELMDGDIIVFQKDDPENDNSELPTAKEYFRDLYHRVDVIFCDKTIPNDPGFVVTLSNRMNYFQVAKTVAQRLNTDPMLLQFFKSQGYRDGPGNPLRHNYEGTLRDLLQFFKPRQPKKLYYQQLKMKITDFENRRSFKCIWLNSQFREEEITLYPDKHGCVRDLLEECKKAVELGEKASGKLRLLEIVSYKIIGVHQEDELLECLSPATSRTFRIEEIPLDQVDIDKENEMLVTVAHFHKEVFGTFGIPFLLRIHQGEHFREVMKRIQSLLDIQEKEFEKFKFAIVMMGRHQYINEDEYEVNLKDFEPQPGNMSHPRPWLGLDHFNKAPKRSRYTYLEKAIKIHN
Nature of the assay: USP7-mediated ubiquitin-rhodamine cleavage assay. As to conditions: recombinant full-length USP7 62 pM; ubiquitin-rhodamine 100 nM; 30-minute incubation with compound, 1 hour reaction at room temperature; read-out: Potency: USP7 IC50. The class given is biochemical. The essentials: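 Enzyme 62 pM; HEPES pH 7.3/150 mM NaCl/1 mM TCEP/125 μg/ml BSA; 1% DMSO; 30 min cpd preinc RT; Ub-rhodamine 100 nM, 1 h RT, dark; acetic acid stop; fluorescence; IC50 4-param fit.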
Regarding `Cc1cc(Cl)cc(-c2ccnc3cc(CN4C(=O)CC5(CCC5)C4=O)sc23)c1O[C@H]1CCCNC1` [Example 317, 6-[[7-[5-chloro-3-methyl-2-[[(3S)-3-piperidyl]oxy]phenyl]thieno[3,2-b]pyridin-2-yl]methyl]-6-azaspiro[3.4]octane-5,7-dione; 2,2,2-trifluoroacetic acid], the IC50 (usually the midpoint of a concentration-inhibition curve) is < 1 µM.

For the compound `Cc1cc(Cl)cc(-c2ccnc3cc(CN4C(=O)C5C(C4=O)C5(C)C)sc23)c1O[C@@H]1CCNC[C@@H]1F` (stereo partly drawn) [Example 376, 3-[[7-[5-chloro-2-[[(3S,4R)-3-fluoro-4-piperidyl]oxy]-3-methyl-phenyl]thieno[3,2-b]pyridin-2-yl]methyl]-6,6-dimethyl-3-azabicyclo[3.1.0]hexane-2,4-dione; 2,2,2-trifluoroacetic acid], the concentration for half-maximal inhibition (IC50) is < 1 µM.

Turning to `Cc1cc(Cl)cc(-c2ccnc3cc(Cn4c(=O)ccn(CC(F)(F)F)c4=O)sc23)c1O[C@@H]1CCNC[C@@]1(C)F` [Example 276, 3-((7-(5-Chloro-2-(((3R,4R)-3-fluoro-3-methylpiperidin-4-yl)oxy)-3-methylphenyl)thieno[3,2-b]pyridin-2-yl)methyl)-1-(2,2,2-trifluoroethyl)pyrimidine-2,4(1H,3H)-dione], the IC50 is < 1 µM.

For the compound `Cc1cc(Cl)cc(-c2ncnc3cc(CN4C(=O)CCCC4=O)sc23)c1O[C@@H]1CNC[C@@H]1F` [Example 134, 1-((4-(5-Chloro-2-(((3R,4S)-4-fluoropyrrolidin-3-yl)oxy)-3-methylphenyl)thieno[3,2-d]pyrimidin-6-yl)methyl)piperidine-2,6-dione], the concentration for half-maximal inhibition (IC50) was < 1 µM.

With `Cc1cc([N+](=O)[O-])cc(-c2ccnc3cc(Cn4c(=O)ccn(CC(F)(F)F)c4=O)sc23)c1OC1CCN(C(C)(C)C)CC1` [Example 347, 3-[[7-[2-[(1-tert-butyl-4-piperidyl)oxy]-3-methyl-5-nitro-phenyl]thieno[3,2-b]pyridin-2-yl]methyl]-1-(2,2,2-trifluoroethyl)pyrimidine-2,4-dione], the IC50 was < 1 µM.

Consider `Cc1cc(Cl)cc(-c2ccnc3cc(CN4C(=O)C5CC5C4=O)sc23)c1OC1CCNCC1` (stereo not shown) [Example 233, 3-((7-(5-Chloro-3-methyl-2-(piperidin-4-yloxy)phenyl)thieno[3,2-b]pyridin-2-yl)methyl)-3-azabicyclo[3.1.0]hexane-2,4-dione], for which the 50% inhibitory concentration (IC50) is < 1 µM.

For `Cc1cc(Cl)cc(-c2ccnc3cc(CN4C(=O)CCC4=O)sc23)c1O[C@@H]1CN[C@H](CO)C1` [Example 116, 1-((7-(5-Chloro-2-(((3S,5S)-5-(hydroxymethyl)pyrrolidin-3-yl)oxy)-3-methylphenyl)thieno[3,2-b]pyridin-2-yl)methyl)pyrrolidine-2,5-dione], the IC50 is < 1 µM.

For the compound `Cc1cc(Cl)cc(-c2ncnc3cc(CN4C(=O)C5C(C4=O)C5(C)C)sc23)c1O[C@H]1CCCN[C@H]1C` (stereo partly drawn) [Example 359, 3-[[4-[5-chloro-3-methyl-2-[[(2S,3S)-2-methyl-3-piperidyl]oxy]phenyl]thieno[3,2-d]pyrimidin-6-yl]methyl]-6,6-dimethyl-3-azabicyclo[3.1.0]hexane-2,4-dione], the half-inhibitory concentration (IC50) is < 1 µM.

For the compound `Cc1cc(Cl)cc(-c2ccnc3cc(Cn4c(=O)ccn(C)c4=O)sc23)c1OC1CNCC(C)(C)C1` (stereo not shown) [Example 6, 3-((7-(5-Chloro-2-((5,5-dimethylpiperidin-3-yl)oxy)-3-methylphenyl)thieno[3,2-b]pyridin-2-yl)methyl)-1-methylpyrimidine-2,4(1H,3H)-dione], the IC50 was < 1 µM.

On to `Cc1cc(Cl)cc(-c2ccnc3cc(CN4C(=O)C5CC5C4=O)sc23)c1O[C@@H]1CCNC[C@H]1F` (stereo partly drawn) [Example 293, 3-[[7-[5-chloro-2-[[(3R,4R)-3-fluoro-4-piperidyl]oxy]-3-methyl-phenyl]thieno[3,2-b]pyridin-2-yl]methyl]-3-azabicyclo[3.1.0]hexane-2,4-dione; 2,2,2-trifluoroacetic acid], for which the IC50 was < 1 µM.

On to `OCc1cc2nccc(-c3cc(Cl)cc(Br)c3OCC3CNC3)c2s1` [Example 21, (7-(2-(Azetidin-3-ylmethoxy)-3-bromo-5-chlorophenyl)thieno[3,2-b]pyridin-2-yl)methanol], for which the IC50 lay in the range of 1 to 10 µM.

Consider `Cc1cc(Cl)cc(-c2ccnc3cc(CN4C(=O)CCC4=O)sc23)c1O[C@@H]1CC[C@@H](N)C1` [Example 126, 1-((7-(2-(((1R,3R)-3-Aminocyclopentyl)oxy)-5-chloro-3-methylphenyl)thieno[3,2-b]pyridin-2-yl)methyl)pyrrolidine-2,5-dione], for which the IC50 was < 1 µM.

For `Cc1cc(Cl)cc(-c2ccnc3cc(CN4C(=O)CCC4=O)sc23)c1OC1CNCC1(C)C` (stereo not shown) [Example 345, 1-[[7-[5-chloro-2-(4,4-dimethylpyrrolidin-3-yl)oxy-3-methyl-phenyl]thieno[3,2-b]pyridin-2-yl]methyl]pyrrolidine-2,5-dione], the half-maximal inhibitory concentration (IC50) was < 1 µM.

Regarding “2-((4-(5-Chloro-3-methyl-2-(piperidin-4-yloxy)phenyl)thieno[3,2-d]pyrimidin-6-yl)methyl)tetrahydrocyclopenta[c]pyrrole-1,3(2H,3aH)-dione [Example 178]”, the IC50 was < 1 µM.

Consider `Cc1cc(Cl)cc(-c2ccnc3cc(CN4C(=O)C5CCCC5C4=O)sc23)c1O[C@@H]1CNC[C@@H]1F` (stereo partly drawn) [Example 141, 2-((7-(5-Chloro-2-(((3R,4S)-4-fluoropyrrolidin-3-yl)oxy)-3-methylphenyl)thieno[3,2-b]pyridin-2-yl)methyl)tetrahydrocyclopenta[c]pyrrole-1,3(2H,3aH)-dione], for which the IC50 was < 1 µM.

The same assay, now with this note: recombinant full-length USP7 62 pM; ubiquitin-rhodamine 100 nM; 30-minute incubation, 1 hour reaction at room temperature; read-out: Potency (USP7 IC50).
For the compound `Cc1cc(Cl)cc(-c2ccnc3cc(Cn4c(=O)ccn(CC(F)(F)F)c4=O)sc23)c1OCCN1CCC1` [Example 701, 3-[[7-[2-[2-(azetidin-1-yl)ethoxy]-5-chloro-3-methyl-phenyl]thieno[3,2-b]pyridin-2-yl]methyl]-1-(2,2,2-trifluoroethyl)pyrimidine-2,4-dione; 2,2,2-trifluoroacetic acid], the concentration for half-maximal inhibition (IC50) is < 1 µM.

On to `Cc1cc(Cl)cc(-c2ccnc3cc(Cn4c(=O)ccn(CC(F)(F)F)c4=O)sc23)c1OC1CCC(F)(F)CC1` [Example 682, 3-[[7-[5-chloro-2-(4,4-difluorocycllohexoxy)-3-methyl-phenyl]thieno[3,2-b]pyridin-2-yl]methyl]-1-(2,2,2-trifluoroethyl)pyrimidine-2,4-dione], for which the IC50 is < 1 µM.

Staying with this assay, now noted: recombinant full-length USP7 62 pM; ubiquitin-rhodamine 100 nM; 30-minute pre-incubation, 1 hour reaction at room temperature; read-out: Potency (USP7 IC50).
Consider `Cc1cc(Cl)cc(-c2ccnc3cc(Cn4c(=O)ccn(CC(F)(F)F)c4=O)sc23)c1OC1CCCC1` [Example 664, 3-[[7-[5-chloro-2-(cyclopentoxy)-3-methyl-phenyl]thieno[3,2-b]pyridin-2-yl]methyl]-1-(2,2,2-trifluoroethyl)pyrimidine-2,4-dione], for which the half-maximal inhibitory concentration (IC50) is < 1 µM.

Regarding `Cc1cc(Cl)cc(-c2ccnc3cc(Cn4c(=O)ccn(C)c4=O)sc23)c1OC(C)CN` (stereo not shown) [Example 553, 3-[[7-[2-(2-amino-1-methyl-ethoxy)-5-chloro-3-methyl-phenyl]thieno[3,2-b]pyridin-2-yl]methyl]-1-methyl-pyrimidine-2,4-dione; 2,2,2-trifluoroacetic acid], the IC50 was < 1 µM.

Turning to `Cc1cc(Cl)cc(-c2ccnc3cc(Cn4c(=O)ccn(CC(F)(F)F)c4=O)sc23)c1O[C@@H]1C[C@@H]2C[C@H]1CN2` [Example 637, 3-[[7-[2-[[(1S,4S,5R)-2-azabicyclo[2.2.1]heptan-5-yl]oxy]-5-chloro-3-methyl-phenyl]thieno[3,2-b]pyridin-2-yl]methyl]-1-(2,2,2-trifluoroethyl)pyrimidine-2,4-dione; 2,2,2-trifluoroacetic acid], the 50% inhibitory concentration (IC50) was < 1 µM.

In the case of `CCN1CC[C@H](Oc2c(C)cc(Cl)cc2-c2ccnc3cc(Cn4c(=O)ccn(C)c4=O)sc23)[C@@H](F)C1` [Example 482, 3-[[7-[5-chloro-2-[[(3S,4S)-1-ethyl-3-fluoro-4-piperidyl]oxy]-3-methyl-phenyl]thieno[3,2-b]pyridin-2-yl]methyl]-1-methyl-pyrimidine-2,4-dione; 2,2,2-trifluoroacetic acid], the 50% inhibitory concentration (IC50) was < 1 µM.

Consider `Cc1cc(Cl)cc(-c2ccnc3cc(COc4nc(=O)ccn4CC(F)(F)F)sc23)c1O[C@H]1CNCC[C@H]1C` [Example 615, 2-[[7-[5-chloro-3-methyl-2-[[(3R,4R)-4-methyl-3-piperidyl]oxy]phenyl]thieno[3,2-b]pyridin-2-yl]methoxy]-1-(2,2,2-trifluoroethyl)pyrimidin-4-one], for which the IC50 was < 1 µM.

Turning to `Cc1cc(Cl)cc(-c2ccnc3cc(Cn4c(=O)ccn(CC(F)(F)F)c4=O)sc23)c1O[C@H]1CNC[C@@H]1C` [Example 567, 3-[[7-[5-chloro-3-methyl-2-[(3R,4S)-4-methylpyrrolidin-3-yl]oxy-phenyl]thieno[3,2-b]pyridin-2-yl]methyl]-1-(2,2,2-trifluoroethyl)pyrimidine-2,4-dione], the IC50 was < 1 µM.

With `Cc1cc(Cl)cc(-c2ccnc3cc(Cn4c(=O)ccn(CC(F)(F)F)c4=O)sc23)c1O[C@H]1CC[C@](C)(N)C1` [Example 597, 3-[[7-[2-[(1S,3S)-3-amino-3-methyl-cyclopentoxy]-5-chloro-3-methyl-phenyl]thieno[3,2-b]pyridin-2-yl]methyl]-1-(2,2,2-trifluoroethyl)pyrimidine-2,4-dione; 2,2,2-trifluoroacetic acid], the IC50 was < 1 µM.

As for `COC[C@H]1C[C@H](Oc2c(C)cc(Cl)cc2-c2ccnc3cc(Cn4c(=O)ccn(CC(F)(F)F)c4=O)sc23)CN1` [Example 650, 3-[[7-[5-chloro-2-[(3S,5R)-5-(methoxymethyl)pyrrolidin-3-yl]oxy-3-methyl-phenyl]thieno[3,2-b]pyridin-2-yl]methyl]-1-(2,2,2-trifluoroethyl)pyrimidine-2,4-dione], the 50% inhibitory concentration (IC50) was < 1 µM.
